# Experimental data published in US20120270237A9, “METHODS FOR THE IDENTIFICATION OF KINASE INTERACTING MOLECULES AND FOR THE PURIFICATION OF KINASE PROTEINS” (Cellzone AG, priority 2009, published 2012).
# Columns and labels:
# Experiment in all cases: Kinobeads competition binding, HeLa Placenta lysate mix
# Set-up in all cases: capturing and identification of kinases from mixed HeLa placenta lysates; endogenous in cells; host or cells: mix of HeLa cell lysate and placenta tissue lysate
# Details in all cases: 10 μM free compound
# ALK2 = ALK2 (Homo sapiens, UniProt Q04771)
# Procedure: (§1) To one aliquot of cell lysate 10 μM of the free compound (FIG. 3, CZC31326) was added and allowed to bind to proteins in the lysate. Then the affinity matrix with the immobilized compound was added to capture proteins that were not interacting with the previously added free compound. Beads were separated from the lysate and bead bound proteins were eluted in SDS sample buffer and subsequently separated by SDS-Polyacrylamide gel electrophoresis (FIG. 10). Suitable gel bands were cut out and subjected to in-gel proteolytic digestion with trypsin. The second lysate aliquot was processed identically, however no free compound was added (DMSO solvent control). Peptides originating from samples 1 and 2 were labeled with iTRAQ reagents (iTRAQ 114 and iTRAQ 117) and the combined samples were analyzed with a nano-flow liquid chromatography system coupled online to a tandem mass spectrometer (LC-MS/MS) experiment followed by iTRAQ reporter ion quantification in the MS/MS spectra as described in Example 2.
# CDK2 = CDK2 (Homo sapiens, UniProt P24941)
# Procedure: as §1
# MST2 = MST2 (Homo sapiens, UniProt Q13188)
# Procedure: as §1
# ARG = ARG (Homo sapiens, UniProt P42684)
# Procedure: as §1
# CDK9 = CDK9 (Homo sapiens, UniProt P50750)
# Procedure: as §1
# CK2a2 = CK2a2 (Homo sapiens, UniProt P19784)
# Procedure: as §1
smiles,measurement,setting,value
"CS(=O)(=O)Nc1ccccc1Nc1nc(Nc2cccc(OCCN)c2)ncc1Cl [CZC31326, N-(2-(2-(3-(2-aminoethoxy)phenylamino)-5-chloropyrimidin-4-ylamino)phenyl)methanesulfonamide]",inhibition at 10 µM,ALK2,94.3%
same,Competition %,CDK2,93%
same,inhibition at 10 µM,MST2,93.9%
same,inhibition at 10 µM,ARG,91.2%
same,inhibition at 10 µM,CDK9,95.3%
same,inhibition at 10 µM,CK2a2,95.4%
